Where two headings read alike, the source gives them in different places.
How the values were obtained:
equine BChE (eqBChE) = molecular target: T1, equine BChE (eqBChE) (Equus caballus, UniProt P81908); experiment: Percent inhibition of eqBChE, Ellman's spectrophotometric method; format: biochemical; conditions: for inhibition at 0.9 µM: [I] 900 nM; for % inhibition vs eqBChE ± SD (900 uM): 900 nM
T1 construct: purchased Sigma-Aldrich (Milan, Italy)
Experimental: On the synthesized compounds, enzymatic inhibition studies were carried out toward Electrophorus electricus AChE (EeAChE) and equine BChE (eqBChE) according to Ellman’s spectrophotometric method.[25]
All other chemical and biological reagents and solvents used were of the highest analytical, commercially available grade. The water, utilized for the preparation of the phosphate buffer and of the compound solutions, was distilled and filtered on nylon membrane filters with a 0.2 μm pore size with the Millipore Filtration apparatus before each use. Micropipettes Labmate (BRAND Dig. 10–100 μL; Dig. 100–1000 μL; Dig. 0.1–2 μL) and Transferpette (HIGH TECH LAB LM200: 20–200 μL; LM5000: 1000–5000 μL) were used to collect the samples. The assays were carried out by a double beam UV–vis Lambda 40 Perkin Elmer spectrophotometer using optical polystyrene cuvettes (10 × 10 × 45 mm, 340–800 nm optical transparency); each measure was repeated at least in triplicate. […] The spectrophotometric method of Ellman[25] with minor modifications was used to evaluate the inhibition of ChEs. […] EeAChE and eqBChE were periodically tested to evaluate the effective enzymatic activity.
For all the synthesized compounds, the percentages of inhibition toward AChE of Electrophorus electricus (EeAChE) and equine BChE (eqBChE) were evaluated.
Three milliliters of a solution in 0.1 M phosphate buffer (pH = 7.4) containing DTNB (0.25 mM) and EeAChE (0.083 UmL^–1) or eqBChE (0.083 UmL^–1) was placed in a polystyrene cuvette of 1.0 cm path length; 1 μL of a solution in DMSO of the tested compound was added to obtain a cuvette concentration range of 9–0.09 μM. With this solution, the blank was made. […] Each experiment was repeated at least in triplicate.

Aβ42 peptide = molecular target: T2, Aβ42 peptide (Homo sapiens, UniProt P05067); experiment: Inhibition of Aβ42 aggregation in intact E. coli cells, thioflavin-S; format: cell-based, Escherichia coli; conditions: [I] = 100 μM
T2 construct: expressed in transfected cells; host or cells: E. coli BL21 (DE3), pET28a
Experimental: (§1) The anti-aggregating effect of the tested compounds was monitored by a cell-based assay in intact Escherichia coli cells that overexpress either the Aβ42 peptide or tau protein, which upon overexpression form insoluble inclusion bodies that were stained with thioflavin-S, an amyloid specific dye.[36] The percentages of inhibition toward Aβ42 and tau aggregation were determined at an inhibitor concentration of 100 μM, and the obtained results are reported in Table 7.
E. coli competent cells BL21 (DE3) were transformed with the pET28a vector (Novagen, Inc., Madison, WI, USA) carrying the DNA sequence of Aβ42. Because of the addition of the initiation codon ATG in front of both genes, the overexpressed peptide contains an additional methionine residue at its N terminus. For overnight culture preparation, an amount of 10 mL of the M9 minimal medium containing 50 μg·mL^–1 of kanamycin was inoculated with a colony of BL21 (DE3) bearing the plasmid to be expressed at 37 °C. For expression of the Aβ42 peptide, the required volume of overnight culture to obtain 1:500 dilution was added into the fresh M9 minimal medium containing 50 μg·mL^–1 of kanamycin and 250 μM Th-S. The bacterial culture was grown at 37 °C and 250 rpm. When the cell density reached OD600 = 0.6, an amount of 980 μL of culture was transferred into Eppendorf tubes of 1.5 mL with 10 μL of each compound to be tested in DMSO and 10 μL of isopropyl 1-thio-β-D-galactopyranoside (IPTG) at 100 mM. The final concentration of the drug was fixed at 100 μM. The samples were grown overnight at 37 °C and 1400 rpm using a ThermoMixer (Eppendorf, Hamburg, Germany). As negative control (maximal amyloid presence), the same amount of DMSO without the drug was added in the sample. In parallel, non-induced samples (in the absence of IPTG) were also prepared and used as positive controls (non-amyloid presence). In addition, these samples were used to assess the potential intrinsic toxicity of the compounds and to confirm the correct bacterial growth.
(§2) Th-S (T1892) and other chemical reagents were purchased from Sigma (St. Louis, MO). The Th-S stock solution ([…]) was prepared in double-distilled water purified through a Milli-Q system (Millipore, USA). Th-S fluorescence and absorbance were tracked using a DTX 800 plate reader Multimode Detector equipped with a Multimode Analysis Software (Beckman-Coulter, USA). Filters of 430/35 and 485/20 nm were used for the excitation and emission wavelengths, respectively. Filters of 535/25 nm were also used for the absorbance determination. To normalize the Th-S fluorescence as a function of the bacterial concentration, OD600 was obtained using a Shimadzu UV-2401 PC UV–vis spectrophotometer (Shimadzu, Japan). Note that the fluorescence normalization was carried out considering as 100% the Th-S fluorescence of the bacterial cells expressing the peptide or protein in the absence of drug and 0% the Th-S fluorescence of the bacterial cells not expressing the peptide or protein. A minimum of five independent assays (with three replicates for assay) was performed for each tested compound. More assays were performed to obtain a SEM < 5% with a maximum of 10 independent assays.

tau protein = molecular target: T3, tau protein (Homo sapiens, UniProt P10636); experiment: Inhibition of tau aggregation in intact E. coli cells, thioflavin-S; format: cell-based, Escherichia coli; conditions: [I] = 100 μM
T3 construct: expressed in transfected cells; host or cells: E. coli BL21 (DE3) with pTARA and pRKT42
Experimental: as §1
E. coli BL21 (DE3) competent cells were transformed with pTARA containing the RNA-polymerase gene of T7 phage (T7RP) under the control of the promoter PBAD. E. coli BL21 (DE3) with pTARA competent cells were transformed with the pRKT42 vector encoding four repeats of the tau protein in two inserts. For overnight culture preparation, 10 mL of the M9 medium containing 0.5% of glucose, 50 μg·mL^–1 of ampicillin, and 12.5 μg·mL^–1 of chloramphenicol was inoculated with a colony of BL21 (DE3) bearing the plasmids to be expressed at 37 °C. For expression of the tau protein, the required volume of overnight culture to obtain 1:500 dilution was added to the fresh M9 minimal medium containing 0.5% of glucose, 50 μg·mL^–1 of ampicillin, 12.5 μg·mL^–1 of chloramphenicol, and 250 μM Th-S. The bacterial culture was grown at 37 °C and 250 rpm. When the cell density reached OD600 = 0.6, an amount of 980 μL of culture was transferred into Eppendorf tubes of 1.5 mL with 10 μL of each compound to be tested in DMSO and 10 μL of arabinose at 25%. The final concentration of the drug was fixed at 100 μM. The samples were grown overnight at 37 °C and 1400 rpm using a ThermoMixer (Eppendorf, Hamburg, Germany). As negative control (maximal presence of tau), the same amount of DMSO without the drug was added in the sample. In parallel, non-induced samples (in the absence of arabinose) were also prepared and used as positive controls (absence of tau). In addition, these samples were used to assess the potential intrinsic toxicity of the compounds and to confirm the correct bacterial growth.
as §2

[1] = 0.0833 U/mL enzyme, 100 μM acetylthiocholine, read-out: % inhibition vs eqBChE ± SD
[2] = [I] 9 μM, 0.0833 U/mL enzyme, 100 μM acetylthiocholine, read-out: % inhibition vs eqBChE ± SD
[3] = read-out: % inhibition vs eqBChE ± SD (9 uM), 9 uM, supplement csv

T3 sequence (P10636 1-441 isoform P10636-8): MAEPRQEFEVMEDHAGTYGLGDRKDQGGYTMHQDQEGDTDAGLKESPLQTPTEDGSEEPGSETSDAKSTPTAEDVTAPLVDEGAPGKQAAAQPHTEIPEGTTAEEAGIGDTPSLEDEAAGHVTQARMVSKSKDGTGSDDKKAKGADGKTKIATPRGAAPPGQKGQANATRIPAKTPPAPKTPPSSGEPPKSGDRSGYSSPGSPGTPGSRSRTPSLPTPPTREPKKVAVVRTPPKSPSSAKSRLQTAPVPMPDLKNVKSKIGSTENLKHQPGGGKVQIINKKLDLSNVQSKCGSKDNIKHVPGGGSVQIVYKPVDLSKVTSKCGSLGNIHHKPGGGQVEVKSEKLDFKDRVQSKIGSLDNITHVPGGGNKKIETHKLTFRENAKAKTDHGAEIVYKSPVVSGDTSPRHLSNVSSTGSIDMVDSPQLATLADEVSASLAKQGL
T2 sequence (P05067 672-713 limits assumed): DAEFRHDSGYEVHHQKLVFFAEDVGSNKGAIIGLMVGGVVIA
T1 sequence (P81908 whole entry): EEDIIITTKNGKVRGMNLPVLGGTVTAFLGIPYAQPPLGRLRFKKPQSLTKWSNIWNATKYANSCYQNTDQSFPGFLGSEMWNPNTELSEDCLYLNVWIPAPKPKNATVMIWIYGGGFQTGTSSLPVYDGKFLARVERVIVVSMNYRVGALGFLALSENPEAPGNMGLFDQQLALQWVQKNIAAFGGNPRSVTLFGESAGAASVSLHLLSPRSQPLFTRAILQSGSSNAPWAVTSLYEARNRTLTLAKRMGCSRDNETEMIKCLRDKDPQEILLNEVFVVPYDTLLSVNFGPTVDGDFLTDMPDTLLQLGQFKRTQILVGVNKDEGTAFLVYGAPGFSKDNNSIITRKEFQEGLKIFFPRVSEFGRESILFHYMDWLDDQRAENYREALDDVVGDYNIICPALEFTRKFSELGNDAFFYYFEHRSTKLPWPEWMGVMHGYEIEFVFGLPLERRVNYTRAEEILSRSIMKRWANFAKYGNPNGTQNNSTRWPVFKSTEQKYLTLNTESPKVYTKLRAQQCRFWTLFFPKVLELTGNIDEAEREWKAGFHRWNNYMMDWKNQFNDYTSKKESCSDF

SMILES	inhibition at 0.9 µM (equine BChE (eqBChE); [1]) [%]	inhibition at 9 µM (equine BChE (eqBChE); [2]) [%]	inhibition at 9 µM (equine BChE (eqBChE); [3]) [%]	inhibition at 100 µM (Aβ42 peptide) [%]	inhibition at 100 µM (tau protein) [%]	% inhibition vs eqBChE ± SD (900 uM) (equine BChE (eqBChE); supplement csv) [%]	% inhibition vs eqBChE ± SD (equine BChE (eqBChE); [I] 9 μM, 0.0833 U/mL enzyme, 100 μM acetylthiocholine) [%]	inhibition at 0.09 µM (equine BChE (eqBChE); [I] 90 nM, 0.0833 U/mL enzyme, 100 μM acetylthiocholine, read-out: % inhibition vs eqBChE ± SD) [%]
c1ccc(CNCCCCCNc2ccccn2)cc1 [Compound 23, N^1-Benzyl-N^5-(pyridin-2-yl)pentane-1,5-diamine]	5 ± 5.8	56.5 ± 3	5 ± 5.8	10.4	7	–	–	–
c1ccc(CNCCCCCCNc2ncccn2)cc1 [Compound 13, N^1-Benzyl-N^6-(pyrimidin-2-yl)hexane-1,6-diamine]	–	26 ± 3.5	26 ± 3.5	21	12.6	–	–	–
c1cnc(NCCCCCCNCc2c[nH]c3ccccc23)nc1 [Compound 22, N^1-((1H-Indol-3-yl)methyl)-N^6-(pyrimidin-2-yl)hexane-1,6-diamine]	65	94	94 ± 0.7	9.7	6.8	65.1 ± 3.8	94.0 ± 0.7	–
COc1cc(CNCCCCCCNc2ncccn2)ccc1O [Compound 18, 2-Methoxy-4-(((6-(pyrimidin-2-ylamino)hexyl)amino)methyl)phenol]	44	84	84.4 ± 0.8	1.7	1	44.2 ± 6.4	–	–
c1ccc(CNCCCCCNc2ncccn2)cc1 [Compound 9, N^1-Benzyl-N^5-(pyrimidin-2-yl)pentane-1,5-diamine]	–	17.4 ± 2.7	17.4 ± 2.7	5.8	2.6	–	–	–
COc1cc(CNCCCCCCNc2ccccn2)ccc1O [Compound 30, 2-Methoxy-4-(((6-(pyridin-2-ylamino)hexyl)amino)methyl)phenol]	51	91	51.2 ± 3.1	13.6	12.8	15.6 ± 6.1	–	15.6 ± 6.1
COc1ccccc1CNCCCCCCNc1ccccn1 [Compound 28, N^1-(2-Methoxybenzyl)-N^6-(pyridin-2-yl)hexane-1,6-diamine]	24.2 ± 3.3	74.3 ± 1.4	24.2 ± 3.3	22.3	17	–	–	–
Oc1cccc(CNCCCCCCNc2ncccn2)c1 [Compound 19, 3-(((6-(Pyrimidin-2-ylamino)hexyl)amino)methyl)phenol]	–	26.6 ± 3.9	26.6 ± 3.9	16.7	9.9	–	–	–
Oc1cccc(CNCCCCCCNc2ncccn2)c1O [Compound 20, 3-(((6-(Pyrimidin-2-ylamino)hexyl)amino)methyl)benzene-1,2-diol]	–	17.1 ± 1.6	17.1 ± 1.6	7.2	4.6	–	–	–
c1ccc(CNCCCCCCNc2ccccn2)cc1 [Compound 25, N^1-Benzyl-N^6-(pyridin-2-yl)hexane-1,6-diamine]	16.6 ± 6.3	71.6 ± 2.1	16.6 ± 6.3	16.8	6.7	–	–	–
Brc1ccc(CNCCCCCCNc2ccccn2)cc1 [Compound 26, N^1-(4-Bromobenzyl)-N^6-(pyridin-2-yl)hexane-1,6-diamine]	17 ± 2.7	76.8 ± 0.5	17 ± 2.7	7.3	7.3	–	–	–

Reference: paper PMC8569681, “New Pyrimidine and Pyridine Derivatives as Multitarget Cholinesterase Inhibitors: Design, Synthesis, and In Vitro and In Cellulo Evaluation” (ACS Chemical Neuroscience, 2021)
